The record followed here is patent US7754896B2, “Indol-alanine derivatives as selective S1P4-agonists” (Novartis AG, priority 2004, dated 2010).

By EC50 is commonly meant the concentration that produces a half-maximal response.

The target in one assay is T1, S1P1 (Homo sapiens, UniProt P21453).
T1 construct: expressed in transfected cells
Nature of the assay: GTPγS binding assay, S1P1. It is filed as biochemical. The conditions noted are these: CHO cells expressing S1P1. An excerpt:
(§1) Human S1P1 (GenBank™ accession number M31210) and S1P3 (GenBank™ accession number X83864) cDNA containing the myc sequence in front to the human S1P1 and S1P3 sequences are inserted in the pcDNA 3.1 vector. The vectors are sequenced to completion to confirm the correctness of the construct. The human S1P2 (GI: 4090955, TREMBL: 0195136) is cloned by a PCR based method. Lung cDNA (marathon cDNA) is obtained (BD Biosciences Chontech, Palo Alto, Calif. 94303, USA). Following oligonucleotides are used for the PCR reaction: forward primer CACCATGGGCAGCTTGTACTCGGAGTACCT GM CCC CAA CM GGT CCA G (1 to 45, GenBank™ accession number AF034780) and reverse primer 5′-GATTCAGACCACCGTGTTGCCCTCCAG (1062 to 1039, GenBank™ accession number AF034780), the initiation of the translation (ATG) and the stop codon are underlined. […] The amplified product of around 1100 bp is analyzed by standard agarose gel-electrophoresis. […]
(§2) Membrane proteins are prepared from wild type CHO-K1 and the CHO cell clones expressing human S1P4. […] The protein concentration is determined using the Bio Rad Protein Assay and human IgG as standard. […]
Background: GTPγS is a poorly hydrolysed GTP analogue; its binding reports G protein activation.

The next assay concerns the target T2, S1P3 (Homo sapiens, UniProt Q99500).
T2 construct: expressed in transfected cells
In words: Calcium mobilization assay, CHO cells expressing S1P3. The assay is classed as cell-based. The source says: Human S1P1 (GenBank™ accession number M31210) and S1P3 (GenBank™ accession number X83864) cDNA containing the myc sequence in front to the human S1P1 and S1P3 sequences are inserted in the pcDNA 3.1 vector. The vectors are sequenced to completion to confirm the correctness of the construct. The human S1P2 (GI: 4090955, TREMBL: 0195136) is cloned by a PCR based method. Lung cDNA (marathon cDNA) is obtained (BD Biosciences Chontech, Palo Alto, Calif. 94303, USA). […] The amplified product of around 1100 bp is analyzed by standard agarose gel-electrophoresis. […]
CHO cells are plated in black Costar plate (96 or 384 well, 50,000 cells or 12,500 cells, respectively) in a MEM with FCS and cultured for 20-24 h at 37° C. in a CO2 incubator. […] After measuring the baseline for 40 sec, the agonist in HBSS is added and the fluorescence is measured at intervals of 2 sec for 3 to 5 min. […]
(§3) The compounds mentioned in this application are tested for specificity, e.g. the activity they have in the parental cell line prior transformation with the S1P4 cDNA and for selectivity on CHO cells lines transformed with the S1P1, S1P2, S1P3, and S1P5. […] For example, S1P4 specific and selective compounds may have an EC50 (apparent EC50) measured at S1P4 that is 10×, preferably 100× lower that that measured in wild type CHO cells or In cell expressing any of the other four S1P receptors.
(In general: Calcium assays in cells follow changes in intracellular calcium, usually with a dye or a luminescent sensor.)

A further assay has as its system CHO. In words: Calcium mobilization assay, parental CHO cells. The assay is classed as cell-based. The conditions noted are these: Cricetulus griseus. Here is the method:
CHO cells are plated in black Costar plate (96 or 384 well, 50,000 cells or 12,500 cells, respectively) in a MEM with FCS and cultured for 20-24 h at 37° C. in a CO2 incubator. After the removal of the culture medium cells are incubated in HBSS medium containing 2 μM Fluo4AM (Molecular Probes, Cat. No, F-1241; 1 mg/ml stock in DMSO), 5 mM probenicid for 1 h at 37° C., rinsed with HBSS buffer, 2.5 mM probenicid and overlaid with the same medium (75 μl for 96-well plates, 50 μl for 384 plates). The plates are transferred to the FLIPR. After measuring the baseline for 40 sec, the agonist in HBSS is added and the fluorescence is measured at intervals of 2 sec for 3 to 5 min. In some cases the cells are pre-treated for 5 h with 50 ng/ml pertussis toxin (Sigma, Cat Nr P2980). […]
as §3

For another assay, the target named is T3, S1P2 (Homo sapiens, UniProt O95136).
T3 construct: expressed in transfected cells
T3 sequence (O95136 whole entry): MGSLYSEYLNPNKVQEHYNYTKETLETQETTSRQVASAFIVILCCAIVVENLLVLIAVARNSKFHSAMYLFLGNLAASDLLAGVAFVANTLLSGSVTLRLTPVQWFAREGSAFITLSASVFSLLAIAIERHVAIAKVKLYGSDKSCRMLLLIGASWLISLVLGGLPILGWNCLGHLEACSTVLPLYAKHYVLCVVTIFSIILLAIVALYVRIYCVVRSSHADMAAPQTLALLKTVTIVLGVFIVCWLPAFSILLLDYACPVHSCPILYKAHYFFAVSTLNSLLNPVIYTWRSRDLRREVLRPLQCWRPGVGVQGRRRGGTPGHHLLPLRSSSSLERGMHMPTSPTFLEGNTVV
Nature of the assay: GTPγS binding assay, S1P2. The assay is classed as biochemical. The conditions noted are these: CHO cells expressing S1P2.
Text: as §1, §2

Each structure is given as a SMILES string.

T1 sequence (P21453 whole entry): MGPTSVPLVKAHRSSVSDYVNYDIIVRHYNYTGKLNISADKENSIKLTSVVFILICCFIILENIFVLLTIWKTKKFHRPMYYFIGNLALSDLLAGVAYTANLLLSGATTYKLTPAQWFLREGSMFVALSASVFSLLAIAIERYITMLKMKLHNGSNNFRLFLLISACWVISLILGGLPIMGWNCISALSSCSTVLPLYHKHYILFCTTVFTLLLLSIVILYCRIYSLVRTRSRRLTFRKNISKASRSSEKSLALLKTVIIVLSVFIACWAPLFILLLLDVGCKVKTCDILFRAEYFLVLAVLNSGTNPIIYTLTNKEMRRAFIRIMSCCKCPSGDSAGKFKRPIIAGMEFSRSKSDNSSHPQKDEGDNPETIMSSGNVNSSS
T2 sequence (Q99500 whole entry): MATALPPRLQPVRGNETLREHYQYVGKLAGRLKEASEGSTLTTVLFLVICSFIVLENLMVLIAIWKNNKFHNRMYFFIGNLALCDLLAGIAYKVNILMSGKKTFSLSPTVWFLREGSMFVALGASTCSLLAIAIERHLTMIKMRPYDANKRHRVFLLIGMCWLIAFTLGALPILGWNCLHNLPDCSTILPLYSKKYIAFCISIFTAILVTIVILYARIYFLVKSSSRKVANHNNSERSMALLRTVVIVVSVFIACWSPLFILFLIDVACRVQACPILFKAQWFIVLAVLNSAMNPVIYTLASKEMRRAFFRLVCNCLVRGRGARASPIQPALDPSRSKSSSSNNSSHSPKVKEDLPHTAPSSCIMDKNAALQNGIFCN

For `NC(CNC(=O)c1cc2c(-c3ccccc3Cc3ccccc3)cccc2[nH]1)C(=O)O` (stereo not shown) [Example 2], the concentration giving a half-maximal response (EC50) was above 10 µM at S1P1, above 6 µM at S1P3, above 6 µM in the assay on CHO and above 10 µM on S1P2.
